Test results reported in patent publication US20220048873A1, “PESTICIDALLY ACTIVE C[…] AMIDE DERIVATIVES” (SYNGENTA CROP PROTECTION AG, priority 2018, published 2022).

Legend:
Type in all cases: in vivo
[1] = tested on: Spodoptera littoralis (Egyptian Cotton Leaf Worm); assay: Spodoptera littoralis control on sprayed cotton leaf discs; conditions: foliar, 72 h, application rate of 200 ppm, L1 larvae, 3 days after infestation, read-out: control (at least one of mortality, anti-feedant effect, growth inhibition)
Protocol: Cotton leaf discs were placed onto agar in 24-well microtiter plates and sprayed with aqueous test solutions prepared from 10′000 ppm DMSO stock solutions. After drying the leaf discs were infested with five L1 larvae. The samples were assessed for mortality, anti-feeding effect, and growth inhibition in comparison to untreated samples 3 days after infestation. Control of Spodoptera littoralis by a test sample is given when at least one of the categories mortality, anti-feedant effect, and growth inhibition is higher than the untreated sample.

[2] = tested on: Plutella xylostella (Diamond Back Moth); assay: Plutella xylostella feeding/contact activity on treated artificial diet; conditions: 192 h, application rate of 200 ppm, eggs, 8 days after infestation
Protocol: 24-well microtiter plates with artificial diet were treated with aqueous test solutions prepared from 10,000 ppm DMSO stock solutions by pipetting. After drying, Plutella eggs were pipetted through a plastic stencil onto a gel blotting paper and the plate was closed with it. The samples were assessed for mortality 8 days after infestation.

[3] = tested on: Euschistus heros (Neotropical Brown Stink Bug); assay: Euschistus heros feeding/contact activity on sprayed soybean leaves; conditions: 120 h, application rate of 200 ppm, N2 nymphs, 5 days after infestation
Protocol: Soybean leaves on agar in 24-well microtiter plates were sprayed with aqueous test solutions prepared from 10,000 ppm DMSO stock solutions. After drying the leaves were infested with N2 nymphs. The samples were assessed for mortality 5 days after infestation.

CCOC(=O)OCN(CC1(C#N)CC1)C(=O)c1ccc(C2=NO[C@@](c3cc(Cl)c(F)c(Cl)c3)(C(F)(F)F)C2)cc1C [A2, [(1-cyanocyclopropyl)methyl-[4-[(5S)-5-(3,5-dichloro-4-fluoro-phenyl)-5-(trifluoromethyl)-4H-isoxazol-3-yl]-2-methyl-benzoyl]amino]methyl ethyl carbonate]
≥ 80%: percent control (mortality, anti-feedant effect or growth inhibition) at 200 ppm [1] | mortality at 200 ppm [2] | mortality at 200 ppm [3]

COC(=O)OCN(CC1(C#N)CC1)C(=O)c1ccc(C2=NO[C@@](c3cc(Cl)c(F)c(Cl)c3)(C(F)(F)F)C2)cc1C [A1, [(1-cyanocyclopropyl)methyl-[4-[(5S)-5-(3,5-dichloro-4-fluoro-phenyl)-5-(trifluoromethyl)-4H-isoxazol-3-yl]-2-methyl-benzoyl]amino]methyl Methyl Carbonate]
≥ 80%: percent control (mortality, anti-feedant effect or growth inhibition) at 200 ppm [1] | mortality at 200 ppm [2] | mortality at 200 ppm [3]
